Source: patent US10548894B2, “Combination therapy” (Array BioPharma Inc., priority 2013, dated 2020)

What was measured:
[1] = test system: WM-266-4 cells expressing mutant MEK1C121S; assay: Microscopy imaging assay (viable nuclei count), 72 h; type: cell-based; conditions: Homo sapiens, WM-266-4 MEK1C121S, single agent
Experimental: (§1) Compound stocks are prepared in DMSO at a final concentration of 10 mM. Working stocks are serially diluted in the appropriate cell culture medium in 3-fold increments to achieve final assay concentrations ranging from 2.7 μM to 1.2 nM.
(§2) A-375 and WM-266-4 cells were purchased from American Type Culture Collection (ATCC). The A-375 cells were cultured in DMEM medium (ATCC) and the WM-266-4 cells were cultured in EMEM medium (ATCC) both supplemented with 10% fetal bovine serum (Gibco) and incubated at 37° C./5% CO2. The cell lines engineered to express commonly occurring alleles indicative of resistance were acquired from Novartis-Emeryville. These resistant models include, A-375 cells expressing mutant MEK1P124L, truncated p61-BRAFV600E, or mutant NRASQ61K, and WM-266-4 cells expressing mutant MEK1C121S, truncated p61-BRAFV600E, or mutant NRASQ61K. These cells were cultured in the appropriate parental medium with selection marker G418 and in the presence of 5 uM LFE158 (MEK mutants) or LIH720 (truncated p61-BRAFV600E).
(§3) For screening, cells were seeded in 80 ul of medium in 384-well plates (Thermo Scientific, cat#4332) at 500 (A-375) or 750 (WM-266-4) cell densities per well using a MultiDrop Combi (Thermo-Fisher) with an 8-channel standard cassette. To promote an even distribution of cells across the entire well, cells were briefly centrifuged at 1000 RPM and incubated at room temperature 30 minutes. All plates were incubated at 37° C., 5% CO2 for 24 h prior to compound addition. Compound stock was freshly prepared in the appropriate culture medium, and added using a PAA robot equipped with a 200n1 pin tool. In a minimum of three replicate wells, single agent and combination effects after 72 hours, were assessed by both quantification of cellular ATP levels via Cell Titer Glo (Promega) according to the manufacturer's protocol and by microscopy imaging. For imaging, cells were fixed to the plates and permeabilized with a solution of 10% PFA, 0.3% TX-100 in PBS via a WellMate dispenser with controlled dispensing speeds. Cell nuclei were stained with Hoechst 33342 (H3570, Invitrogen), and all necessary washing steps were performed by a BioTek washer.
(§4) An automated image analysis pipeline was established using custom-made scripts in the open-source, statistical programming language R, and functions of the BioConductor package EBImage. The goal was to quantify the number of viable nuclei (cells) per well as an approximation for cell viability. The pipeline was comprised of seven steps: (I.) smoothing of the image to reduce the number of intensity peaks, (II.) application of a thresholding function to separate the foreground (signal) from the background (noise), (III.) identification of local maxima in the foreground that serve as seeds for the nuclei, (IV.) filtering of local maxima in close proximity, (V.) propagation of the nuclei from remaining local maxima, (VI.) and extraction of object features from the propagated nuclei (numbers of nuclei, size features and intensity features). As a last step (VII.), to exclude debris (e.g. fragmented nuclei) from counting, objects identified in DMSO- and Staurosporin-treated wells were used to obtain feature distributions for viable and fragmented nuclei, respectively. These were used to set cut-offs differentiating between viable and fragmented nuclei. The number of fragmented nuclei was subtracted from the total number of identified objects and the result was reported as final count for that well.
(§5) Data comprised triplicate measurements for each treatment (compound) condition, 42 replicates of DMSO-treated wells, and duplicates of Staurosporin-treated wells. The data was normalized to the median of the DMSO measurements and summarized by calculating the median of the triplicates. Data was imported into Chalice to calculate compound synergies.

A-375 cells [2] = assay: as above; type: cell-based; conditions: Homo sapiens, A-375 parent, single agent
Experimental: as §1, §2, §3, §4, §5

WM-266-4 cells [3] = assay: as above; type: cell-based; conditions: Homo sapiens, WM-266-4 parent, single agent
Experimental: as §1, §2, §3, §4, §5

[4] = test system: A-375 cells expressing mutant NRASQ61K; assay: as above; type: cell-based; conditions: Homo sapiens, A-375 NRASQ61K, single agent
Experimental: as §1, §2, §3, §4, §5

[5] = test system: A-375 cells expressing mutant MEK1P124L; assay: as above; type: cell-based; conditions: Homo sapiens, A-375 MEK1P124L, single agent
Experimental: as §1, §2, §3, §4, §5

[6] = Clinical dose finding and tolerability (RP2D/MTD) in patients; type: in vivo; conditions: for MTD: QD
Description: The selection of the starting dose follows the ICH S9 guidelines for choosing a starting a dose for a first-in-human trial conducted in patients with cancer, and is shown in Table 6-2.
Table 3 describes the starting doses and the provisional dose levels of study treatments for the combinations that may be evaluated during this trial. Additional dose levels not currently specified may be enrolled and additional patients may be enrolled at a dose level already tested if such changes are deemed necessary to provide optimal safety and tolerability, pharmacokinetic, and pharmacodynamic data.

[7] = test system: WM-266-4 cells expressing mutant MEK1C121S; assay: ATP-based CTG (Cell Titer Glo) cell viability assay, 72 h; conditions: Homo sapiens, WM-266-4 MEK1C121S, single agent
Experimental: as §1, §2, §3, §5

A-375 cells [8] = assay: as above; conditions: Homo sapiens, A-375 parent, single agent
Experimental: as §1, §2, §3, §5

WM-266-4 cells [9] = assay: as above; conditions: Homo sapiens, WM-266-4 parent, single agent
Experimental: as §1, §2, §3, §5

[10] = test system: A-375 cells expressing mutant NRASQ61K; assay: as above; conditions: Homo sapiens, A-375 NRASQ61K, single agent
Experimental: as §1, §2, §3, §5

[11] = test system: A-375 cells expressing mutant MEK1P124L; assay: as above; conditions: Homo sapiens, A-375 MEK1P124L, single agent
Experimental: as §1, §2, §3, §5

[12] = test system: HMEX1906 primary melanoma model (HMEX1906-R5); assay: Efficacy in HMEX1906-R5 primary melanoma model resistant to Compound of Formula (I); type: in vivo; conditions: PO; Compound C 250 mg/kg qd×21; Compound of Formula (I) 5 mg/kg bid×21
Experimental: Objective: To evaluate the efficacy of the combination of the Compound of Formula (I) and the CDK 4 inhibitor Compound C in the HMEX1906 primary melanoma model that is grown in the presence of and is resistant to 5 mg/kg the Compound of Formula (I) (HMEX1906-R5)
Drug formulation: Compound C is formulated in 0.5% MC/0.5% Tween80 and the Compound of Formula (I) is formulated in 20% PEG300/3% ETPGS.
Tumors are chopped/minced into cell line like suspension (tumors homogenized). 7 mL of matrigel added and 1.5 mL of HBSS. Suspension warmed in palm until Matrigel is thick and implanted with a 18G needle s.c right flank of female nude mice.
The mice were assigned to the following groups at 18 days post implant with an average tumor volume of 266 mm^3 and average body weight of 25 grams.
Groups: 10 mice/group, route PO, dose volume 0.2 mL
Group 1: Vehicle, 0 mg/kg bid×14
Group 2: Compound C, 250 mg/kg qd×21
Group 3: Compound of Formula (I), 5 mg/kg bid×21
Group 4: Compound C 250 mg/kg qd×21+Compound of Formula (I) 5 mg/kg bid×21

[13] = test system: MAPK and PIK3C signaling in SK-MEL-5 cells; assay: Western analysis of phosphorylated MEK1/2, ERK1/2 and AKT; type: cell-based; conditions: SK-MEL-5, 2 and 24 hours, no FGF2; Formula (I) 100 nM, Compound H 1.0 uM
Experimental: (§6) FIG. 4—The effect on signaling of combining the Compound of Formula (I) with the FGFR inhibitor Compound H and the FGFR ligand FGF2 in two BRAFV600E mutant melanoma-derived cell lines in vitro. Shown is western analysis of both phosphorylated and total AKT, ERK1/2, and MEK1/2 proteins isolated from (A) […] and (B) SK-MEL-5 cells following treatment with the Compound of Formula (I) (100 nM), FGF2 (100 ng/ml), and Compound H (1 uM). Cells were treated for 2 and 24 hours with agents singly and in combination as discussed in Example 5.
(§7) For Western analysis, cells were plated in 6-well (Costar, catalog number 3506) plates at a density of 5×10^5 cells per well in 2.0 ml of complete culture medium. Twelve to 24 hrs after plating, cells were treated with the various compounds, and in all experiments the Compound of Formula (I), Compound H, and FGF2 were used at final concentrations of 100 nM, 1.0 uM, and 100 ng/ml, respectively. Cells were harvested 2, and 24 hrs following the addition of compound in freshly prepared cell lysis buffer (Cell Signaling Technology Catalog number 9803); supplemented with both phosphatase (PhosStop, Roche Catalog number 04906845001) and protease inhibitors (Roche, catalog number 11697498001). Proteins from cell lysates were separated by electrophoresis though a NuPAGE 4-12% Bis-Tis midi gel (Novex, catalog number WG1402BX10), transferred to nitrocellulose membranes, which were subsequently incubated with antibodies from Cell Signaling Technology (Danvers, Mass., USA) recognizing p-AKT (S473, Catalog number 4058), total AKT (Catalog number 2920), p-ERK1/2 (T202/Y204, catalog number 9101), total ERK1/2 (catalog number 9107), p-MEK1/2 (S217/221, catalog number 9121) and β-actin (Ambion, catalog number AM4302). Western blots were visualized following incubation with IRDye 680RD Goat anti-Rabbit IgG (Li-Cor, Catalog number 926-68071) and IRDye 800 CW Goat anti-Mouse IgG (Li-Cor, Catalog number 926-32210) and scanning with an Odyssey Infrared Imager System (Li-Cor, Lincoln, Nebr., USA).
(§8) To investigate whether either restored MAPK or activated PIK3C signaling might underlie FGF2-mediated rescue the effects of FGF2 on MAPK and PIK3C signaling were examined via western-blot analysis of phosphorylated MEK1/2 (MAP2K1/2), ERK1/2 (MAPK1/2) and AKT1/2/3.

[14] = test system: MAPK and PIK3C signaling in COLO 741 cells; assay: as above; type: cell-based; conditions: COLO 741, 2 and 24 hours, no FGF2; Formula (I) 100 nM, Compound H 1.0 uM
Experimental: as §6, §7, §8

SK-MEL-5 = assay: xCELLigence real-time impedance growth assay; type: cell-based; conditions: SK-MEL-5, absence of FGF2; Formula (I) 100 nM, Compound H 1 uM
Experimental: (§9) Shown is the growth in real time of the (Top A) COLO 741 and (Bottom B) SK-MEL-5 cell lines as measured using the xCELLigence impedance-based cell analyzer as discussed in Example 5. Where indicated FGF2 and Compound H were supplemented to the media at concentrations of 100 ng/ml, and 1 uM, respectively. The Compound of Formula (I) was used at 500 nM in (A) and 100 nM (B).
(§10) For CellTiter-Glo™ assays, cells were dispensed into tissue culture treated 96-well plates (Costar, catalog number 3904) with a final volume of 80 μL of medium and at density of 3000 cells per well. 12 to 24 hrs after plating, 20 μL of each compound dilution series were transferred to plates containing the cells, resulting in compound concentration ranges of 2700 nM to 3.7 nM by 3-fold dilutions and a final DMSO concentration of 0.16%. The total volume in each well was […]. Plates were incubated for 72 hrs and the effects of compounds on cell proliferation was determined using the CellTiter-Glo™ Luminescent Cell Viability Assay (CTG, Promega) and a Victor™ X4 plate reader (Perkin Elmer). For real-time growth assays cells were seeded into xCELLigence E-plates (Roche catalogue number 05232368001) at a density of 4000 cells per well in a total of 90 μl of media and 24 hrs after plating, 11 μl of media with or without compound was added to the wells. 2-4 replicate wells were plated for all cell lines and treatment groups with the exception of LGX818+FGF2 treated COLO 741 cells (N=1). Where indicated final concentrations of compounds and growth factor were 1 uM for Compound H, 100 ng/ml for FGF2, and either 100 nM (SK-MEL-5) or 500 nM (COLO 741) for the Compound of Formula (I). Cells were continuously monitored every two hours for seven days with the xCELLigence real-time impedance based cell analyzer. Impedance was measured using the electrodes on the E-plates, with increasing surface area coverage of cells creating greater electrode impedance. […] In all cases cell index values were normalized to a timepoint immediately following the addition of compound.
(§11) To determine whether rescue of BRAFV600E melanoma cell lines by FGF2 was dependent on FGFR signaling, we examined whether the selective FGFR inhibitor Compound H could prevent FGF2-mediated rescue. Two cell lines which were rescued to varying degrees by FGF2 (COLO 741, and SK-MEL-5, Table 8-1) were cultured in media containing the Compound of Formula (I) and FGF2 either in the presence or absence of Compound H and growth measured in real time.

COLO 741 = assay: xCELLigence real-time impedance growth assay; type: cell-based; conditions: COLO 741, absence of FGF2; Formula (I) 500 nM, Compound H 1 uM
Experimental: as §9, §10, §11

With `Cn1cnc2c(F)c(Nc3ccc(Br)cc3F)c(C(=O)NOCCO)cc21` [Compound B] the IC50 [1] was 1210 nM, the IC50 (A-375 cells [2]) was 57 nM and the IC50 (WM-266-4 cells [3]) was 77 nM. It also gave an IC50 [4] of 150 nM, an IC50 [5] greater than 2700 nM and an RP2D ([6]; BID, in combination with B-Raf inhibitor of Formula (I) 600 mg) of 45 mg. It also gave an IC50 [7] of 821 nM, an IC50 (A-375 cells [8]) of 51 nM and an IC50 (WM-266-4 cells [9]) of 50 nM. The IC50 [10] was 206 nM and the IC50 [11] was greater than 2700 nM.
In the case of `CN(C)C(=O)c1cc2cnc(Nc3ccc(N4CCNCC4)cn3)nc2n1C1CCCC1` [Compound C], the “maximum tolerated dose (MTD)” value ([6]; currently tested at the 900 mg QD dose level) is reported as “has not been achieved”, the “Mean change of body weight” value [12] is reported as 5.3 ± 1.4 % ± SEM and the “Mean change of tumor volume” value [12] is reported as 86 ± 26 mm3 ± SEM. For the same molecule, the “Mean change of tumor volume vs control (T/C)” value [12] was 4% and the “Survival (Survivors/Total)” value [12] was 10/10.
With `Nc1cc(C(F)(F)F)c(-c2cc(N3CCOCC3)nc(N3CCOCC3)n2)cn1` [Compound F, 5-(2,6-di-morpholin-4-yl-pyrimidin-4-yl)-4-trifluoromethyl-pyridin-2-ylamine] the MTD [6] was 100 mg.
With `CCN1CCN(c2ccc(Nc3cc(N(C)C(=O)Nc4c(Cl)c(OC)cc(OC)c4Cl)ncn3)cc2)CC1` [Compound H] the MTD [6] was 125 mg, the “MAPK signaling (phosphorylated MEK and ERK levels)” value [13] was “neither FGF2 nor Compound H when added as single agents affected signaling” and the “MAPK signaling (phosphorylated MEK and ERK levels)” value [14] was “neither FGF2 nor Compound H when added as single agents affected signaling”. The “growth in real time (cell index)” value (SK-MEL-5) was “did not affect the proliferation” and the “growth in real time (cell index)” value (COLO 741) was “did not affect the proliferation”.
